Data on 23 molecules can be found in patent publication US9040712B2, “Thiadiazole analogs thereof and methods for treating SMN-deficiency-related-conditions” (NOVARTIS AG, priority 2013, dated 2015).

pEC50: −log10 of the molar value. Counter-ions that a name gives are not always drawn.

This assay deals with SMN protein. The experiment in a line: cellular SMN ELISA (SMN protein elevation). It is filed as cell-based. Conditions: myoblast cell line derived from SMNdelta7 mouse model; 24 hours compound treatment; concentration range 100 pM-10 uM. As to the method:
A cellular SMN ELISA was used to measure the effects of low molecular weight compounds on SMN protein elevation. Cells from a myoblast cell line derived from the SMNdelta7 mouse model (kind gift from Steve Burden, NYU) were seeded into a 384-well plate at a density of 3000 cells/well and treated with compounds for 24 hours. ELISA capture plates were prepared by coating 384-well plates (Immulon 4HBX) with 0.5 ug/mL of anti-SMN mAb (BD Science, Catalog number 610647) at 4° C. overnight. The plates were washed 5 times with 110 uL of PBS-Tween (0.05% Tween-20, PBST), blocked with 100 uL of 1% BSA in PBST for 2 hours and washed (5 times) with 100 uL of PBST. After 24 hours of compound treatment cells were lysed in a modified RIPA-buffer, on ice for 1 hour. 20 uL of lysate and 20 uL of 1% BSA were then added to the ELISA capture plates and incubated at 4° C. overnight. Plates were washed (5 times) with PBST and then incubated with 1:100 dilution of primary rabbit anti-SMN polyclonal antibody (Santa cruz, Catalog number SC-15320) at room temperature for 1 hour and subsequently washed (5 times) with 110 uL of PBST. This was followed by addition of 1:100 Goat anti-Rabbit IgG-HRP linked (Cell Signaling, Catalog number 7074) secondary antibody for 1 hour. Plates were then washed with PBST and incubated with 40 uL TMB substrate (Cell Signaling, Catalog number 7004L) at room temperature for 1-10 minutes with shaking. The reaction was stopped by addition of 40 uL of stop solution (Cell signaling, Catalog number 7002L) and absorption was measured at 450 nm. Data was reported as fold activation over DMSO control and EC50. ELISA assay condition: compound concentration range 100 pM-10 uM.
As for `CN(c1nnc(-c2ccc(-n3ccc(N)n3)cc2Cl)s1)C1CC(C)(C)NC(C)(C)C1` [Example 69, 5-(4-(3-amino-1H-pyrazol-1-yl)-2-chlorophenyl)-N-methyl-N-(2,2,6,6-tetramethylpiperidin-4-yl)-1,3,4-thiadiazol-2-amine], the negative logarithm of the EC50 (pEC50) was 6.77 and the “SMN Activity Fold (fold activation over DMSO control)” value (“SMN Activity Fold” for short) came out at 2.44 fold.
The corresponding values for `COc1ccc(-c2ccc(-c3nnc(N(C)C4CC(C)(C)NC(C)(C)C4)s3)c(OC)c2)cn1` [Example 78, 5-(2-methoxy-4-(6-methoxypyridin-3-yl)phenyl)-N-methyl-N-(2,2,6,6-tetramethyl-piperidin-4-yl)-1,3,4-thiadiazol-2-amine] are 6.78 and 2.52 fold.
The matching figures for `CN(c1nnc(-c2cc(-n3cccn3)ccc2O)s1)C1CC(C)(C)NC(C)(C)C1` [Example 24, 2-(5-(Methyl(2,2,6,6-tetramethylpiperidin-4-yl)amino)-1,3,4-thiadiazol-2-yl)-4-(1H-pyrazol-1-yl)phenol]: 6.01 and 2.28 fold.
As to `COc1cc2nc(C#N)ccc2cc1-c1nnc(N(C)C2CC(C)(C)NC(C)(C)C2)s1` [Example 37, 7-methoxy-6-(5-(methyl(2,2,6,6-tetramethyl-piperidin-4-yl)amino)-1,3,4-thiadiazol-2-yl) quinoline-2-carbonitrile], the negative logarithm of the EC50 (pEC50) was 7.11 and the “SMN Activity Fold” value is given as 2.19 fold.
The matching figures for `Clc1cc(-c2cn[nH]c2)ccc1-c1nnc(N2CCC3(CCCNC3)C2)s1` (centres unmarked) [Example 106, 2-(2-chloro-4-(1H-pyrazol-4-yl)phenyl)-5-(2,7-diazaspiro[4.5]decan-2-yl)-1,3,4-thiadiazole•Hydrochloride Salt]: 5.78 and 2.50 fold.
The corresponding values for `CN(c1nnc(-c2ccc(-c3cnn(C)c3)cn2)s1)C1CC(C)(C)NC(C)(C)C1` [Example 42, N-methyl-5-(5-(1-methyl-1H-pyrazol-4-yl)pyridin-2-yl)-N-(2,2,6,6-tetramethylpiperidin-4-yl)-1,3,4-thiadiazol-2-amine. Hydrochloride salt] are 6.17 and 2.32 fold.
The corresponding values for `CN(c1nnc(-c2sc3ccccc3c2Cl)s1)C1CC(C)(C)NC(C)(C)C1` [Example 109, 5-(3-chlorobenzo[b]thiophen-2-yl)-N-methyl-N-(2,2,6,6-tetramethylpiperidin-4-yl)-1,3,4-thiadiazol-2-amine] are 6.27 and 2.75 fold.
`CN(c1nnc(-c2ccc(-c3cnn(C)c3)cc2Cl)s1)C1CC(C)(C)NC(C)(C)C1` [Example 25, 5-(2-Chloro-4-(1-methyl-1H-pyrazol-4-yl)phenyl)-N-methyl-N-(2,2,6,6-tetramethylpiperidin-4-yl)-1,3,4-thiadiazol-2-amine]: the pEC50 was 6.88 and the “SMN Activity Fold” value amounted to 2.49 fold.
The matching figures for `CN(c1nnc(-c2ncc(-c3cn[nH]c3)cc2F)s1)C1CC(C)(C)NC(C)(C)C1` [Example 55, 5-(3-fluoro-5-(1H-pyrazol-4-yl)pyridin-2-yl)-N-methyl-N-(2,2,6,6-tetramethylpiperidin-4-yl)-1,3,4-thiadiazol-2-amine]: 6.00 and 2.75 fold.
In the case of `CN(c1nnc(-c2ccc(-c3cn[nH]c3)cc2F)s1)C1CC(C)(C)NC(C)(C)C1` [Example 76, 5-(2-fluoro-4-(1H-pyrazol-4-yl)phenyl)-N-methyl-N-(2,2,6,6-tetramethylpiperidin-4-yl)-1,3,4-thiadiazol-2-amine], the negative-log EC50 (pEC50) was 7.37 and the “SMN Activity Fold” value was 3.06 fold.
The matching figures for `CN(c1nnc(-c2ccc(-c3ccn(C)c(=O)c3)cc2O)s1)C1CC(C)(C)NC(C)(C)C1` [Example 18, 4-(3-Hydroxy-4-(5-(methyl(2,2,6,6-tetramethyl-piperidin-4-yl)amino)-1,3,4-thiadiazol-2-yl)phenyl)-1-methylpyridin-2(1H)-one]: 7.21 and 3.36 fold.
The matching figures for `COC(=O)c1ccc(-c2nnc(N(C)C3CC(C)(C)NC(C)(C)C3)s2)c(F)c1` [Example 35, methyl 3-fluoro-4-(5-(methyl(2,2,6,6-tetramethyl-piperidin-4-yl)amino)-1,3,4-thiadiazol-2-yl) benzoate]: 6.06 and 2.81 fold.
The corresponding values for `CN1C[C@@H]2CN(c3nnc(-c4ccc(-n5ccnc5)cc4Cl)s3)C[C@@H]2C1` [Example 70, 2-(2-chloro-4-(1H-imidazol-1-yl)phenyl)-5-((3aR,6aS)-5-methylhexahydropyrrolo[3,4-c]pyrrol-2(1H)-yl)-1,3,4-thiadiazole] are 5.59 and 2.17 fold.
Regarding `CN(c1nnc(-c2cc3ccccc3[nH]c2=O)s1)C1CC(C)(C)NC(C)(C)C1` [Example 103, 3-(5-(methyl(2,2,6,6-tetramethylpiperidin-4-yl)amino)-1,3,4-thiadiazol-2-yl)quinolin-2(1H)-one], the negative logarithm of the EC50 (pEC50) was 6.79 and the “SMN Activity Fold” value was 2.47 fold.
The corresponding values for `CN(c1nnc(-c2ccc(-c3cn[nH]c3)cc2Cl)s1)C1CC(C)(C)NC(C)(C)C1` [Example 40, 5-(2-chloro-4-(1H-pyrazol-4-yl)phenyl)-N-methyl-N-(2,2,6,6-tetramethylpiperidin-4-yl)-1,3,4-thiadiazol-2-amine] are 7.47 and 2.55 fold.
The matching figures for `Cn1cc(-c2ccc(-c3nnc(OC4CC(C)(C)NC(C)(C)C4)s3)c(Cl)c2)cn1` [Example 43, 2-(2-chloro-4-(1-methyl-1H-pyrazol-4-yl)phenyl)-5-((2,2,6,6-tetramethylpiperidin-4-yl)oxy)-1,3,4-thiadiazole]: 6.35 and 2.28 fold.
The corresponding values for `CN(c1nnc(-c2ccc(-n3ccnn3)cc2Cl)s1)C1CC(C)(C)NC(C)(C)C1` [Example 66, 5-(2-chloro-4-(1H-1,2,3-triazol-1-yl)phenyl)-N-methyl-N-(2,2,6,6-tetramethylpiperidin-4-yl)-1,3,4-thiadiazol-2-amine] are 6.89 and 2.32 fold.
On to `COc1cc(-c2c(C)n[nH]c2C)ccc1-c1nnc(N(C)C2CC(C)(C)NC(C)(C)C2)s1` [Example 13, 5-(4-(3,5-Dimethyl-1H-pyrazol-4-yl)-2-methoxy-phenyl)-N-methyl-N-(2,2,6,6-tetramethylpiperidin-4-yl)-1,3,4-thiadiazol-2-amine], for which the “SMN Activity Fold” value was “inactive”.
`COc1cc(-c2ccc(=O)n(C)c2)ccc1-c1nnc(N(C)C2CC(C)(C)NC(C)(C)C2)s1` [Example 10, 5-(3-Methoxy-4-(5-(methyl(2,2,6,6-tetramethyl-piperidin-4-yl)amino)-1,3,4-thiadiazol-2-yl)phenyl)-1-methylpyridin-2(1H)-one]: the negative-log EC50 (pEC50) is 7.10 and the “SMN Activity Fold” value is given as 2.65 fold.
The matching figures for `Cc1nc(C)c(-c2ccc(-c3nnc(N(C)C4CC(C)(C)NC(C)(C)C4)s3)c(F)c2F)s1` [Example 59, 5-(4-(2,4-dimethylthiazol-5-yl)-2,3-difluorophenyl)-N-methyl-N-(2,2,6,6-tetramethylpiperidin-4-yl)-1,3,4-thiadiazol-2-amine]: 5.82 and 2.69 fold.
In the case of `CN(c1nnc(-c2cc3cccnc3cc2O)s1)C1CC(C)(C)NC(C)(C)C1` [Example 32, 6-(5-(Methyl(2,2,6,6-tetramethylpiperidin-4-yl)amino)-1,3,4-thiadiazol-2-yl)quinolin-7-ol], the pEC50 is 6.59 and the “SMN Activity Fold” value came out at 2.48 fold.
The corresponding values for `Clc1cc(-c2cn[nH]c2)ccc1-c1nnc(N2C[C@H]3CNC[C@H]3C2)s1` [Example 105, 2-(2-chloro-4-(1H-pyrazol-4-yl)phenyl)-5-((3aR,6aS)-hexahydropyrrolo[3,4-c]pyrrol-2(1H)-yl)-1,3,4-thiadiazole Hydrochloride Salt] are 6.74 and 2.21 fold.
Take `CN(c1nnc(-c2c(O)cc(-c3cnn(C)c3)cc2Cl)s1)C1CC(C)(C)NC(C)(C)C1` [Example 26, 3-Chloro-2-(5-(methyl(2,2,6,6-tetramethylpiperidin-4-yl)amino)-1,3,4-thiadiazol-2-yl)-5-(1-methyl-1H-pyrazol-4-yl)phenol]: the “SMN Activity Fold” value was determined as 2.26 fold.

In general, pEC50 refers to −log10 of the EC50, conventionally taken in molar units.
